# Counter-ions that a name gives are not always drawn.
# Target: T1, rat LHRH receptor (Rattus norvegicus, UniProt P30969)
# T1 construct: expressed in transfected cells; host or cells: LTK cells (mouse fibroblasts, ATCC CCL-1.3)
# T1 sequence (P30969 1-327): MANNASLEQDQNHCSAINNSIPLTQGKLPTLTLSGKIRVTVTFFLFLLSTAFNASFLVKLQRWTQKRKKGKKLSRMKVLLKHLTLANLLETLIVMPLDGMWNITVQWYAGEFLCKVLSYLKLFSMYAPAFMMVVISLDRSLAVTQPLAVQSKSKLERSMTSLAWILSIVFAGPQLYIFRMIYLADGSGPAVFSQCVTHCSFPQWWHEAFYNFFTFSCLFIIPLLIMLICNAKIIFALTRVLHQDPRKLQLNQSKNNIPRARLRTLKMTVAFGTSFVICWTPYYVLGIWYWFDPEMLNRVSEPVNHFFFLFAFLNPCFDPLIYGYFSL
# Assay: LHRH receptor-ligand binding assay (transfected LTK cells)
# Conditions: not given
# Experimental: ^125I-Triptorelin [^125I-(D)-Trp6-GnRH] was purchased from Biotrend (Cologne, Germany).
# The specific activity was in each case 2.13 Ci/mmol.
# LTK cells (mouse fibroblasts: ATCC No. CCL-1.3) which have been transfected with the rat LHRH receptor are cultivated in DMEM medium (Invitrogen Life Technologies, Germany) with penicillin (100 I.U./ml), streptomycin (0.1 mg/ml) and glutamine (0.01 mol/l) and 10% fetal calf serum (FCS; Invitrogen Life Technologies, Germany) on plastic tissue culture plates (Nunc, Germany, 245×245-20 mm).
# 80% confluent cell culture plates are washed twice with 50 ml of phosphate-buffered saline (PBS) and then detached with 0.01 M EDTA solution. The cells are pelleted by centrifugation at 200·g for 5 min in a laboratory centrifuge (Kendro, Germany). The cell pellet is resuspended in 3 ml of binding medium (DMEM; 10 mM Hepes; 0.5% BSA; 0.1% […]; 1 g/l bacitracin (add fresh, stock 100×); 0.1 g/l SBTI (add fresh, stock 1000×) and the cell count is determined by Trypan blue staining in a Neubauer counting chamber. The cell suspension is adjusted with binding medium to a concentration of 5×10^5 cells/0.05 ml.
# Binding studies for competition plots are carried out as duplicates. The test substances are employed as 10 mM DMSO solutions. They are diluted to 4 times the final concentration employed with binding medium. 25 μl of the substance dilution are mixed with 25 μl of tracer solution (^125I-triptorelin or ^125I-cetrorelix). The tracer concentration is adjusted to approx. 50 000 cpm (measured in a Cobra II, γ counter. PE Liefe Science, Germany) in the final reaction volume of 100 μl.
# 200 μl of silicone/liquid paraffin mixture (84%:16%) are introduced into 650 μl conical tubes (Roth. Germany). 50 μl of the cell suspension are pipetted thereon, followed by 50 μl of the test substance/tracer mixture. The tubes are capped and incubated with vertical rotation in an incubator at 37° C. for 60 min. After incubation, the samples are centrifuged in a centrifuge (Kendro, Germany) at 900 rpm and subsequently shock-frozen in liquid N2. The tip with the cell pellet is cut off and transferred into prepared counting vials (Roth, Germany). The remainder of the conical tube with the remaining supernatant is likewise transferred into a counting vial. The measurement takes place in a γ counter for 1 min/sample.
# Evaluation of the samples takes place after calculation of the specific binding compared with untreated cells, after subtraction of the nonspecific binding (excess of unlabeled ligand, 1 μM) by means of GraphPad Prism or alternatively by means of OMMM software.
row,Molecule,EC50
1,"CCC(C)[C@H](NC(=O)[C@@]1(NC(=O)[C@H](CCc2ccc(OP(=O)(O)O)cc2)NC(=O)OCc2ccccc2)CCc2[nH]c3c(Cl)cc(Cl)cc3c2C1)C(N)=S (stereo partly drawn) [Compound 12, benzyl[(S)-1-[(R)-6,8-dichloro-3-((S)-2-methyl-1-thiocarbamoylbutylcarbamoyl)-2,3,4,9-tetrahydro-1H-carbazol-3-ylcarbamoyl]-3-(4-phosphonooxyphenyl)propyl]carbamate]",39.2 nM

# Same assay, conditions: LTK cells transfected with rat LHRH receptor, 125I-triptorelin tracer, 37° C., 60 min; read-out: Binding to r-LHRHR EC50
row,Molecule,EC50
1,"2-chlorobenzyl {(S)-1-[(R)-3-((S)-carbamoyl-2-methylbutylcarbamoyl)-6,8-dichloro-2,3,4,9-tetrahydro-1H-carbazol-3-ylcarbamoyl]-2-methylbutyl}carbamate [Compound 6]",104 nM
2,"CC(C)[C@H](NC(=O)[C@@]1(NC(=O)[C@@H](NC(=O)OCc2ccc(Cl)cc2)C(C)C)CCc2[nH]c3c(Cl)cc(Cl)cc3c2C1)C(N)=O [Compound 1, 4-chlorobenzyl {(S)-1-[(R)-3-((S)-1-carbamoyl-2-methylpropylcarbamoyl)-6,8-dichloro-2,3,4,9-tetrahydro-1H-carbazol-3-ylcarbamoyl]-2-methylpropyl}carbamate]",261 nM
3,"CCC(C)[C@H](NC(=O)OCc1ccc(Cl)cc1)C(=O)N[C@]1(C(=O)N[C@H](C(N)=O)C(C)C)CCc2[nH]c3c(Cl)cc(Cl)cc3c2C1 (stereo partly drawn) [Compound 2, 4-chlorobenzyl {(S)-1-[(R)-3-((S)-1-carbamoyl-2-methylpropylcarbamoyl)-6,8-dichloro-2,3,4,9-tetrahydro-1H-carbazol-3-ylcarbamoyl]-2-methylbutyl}carbamate]",205 nM
4,"CCC(C)[C@H](NC(=O)[C@@]1(NC(=O)[C@@H](NC(=O)OCc2ccc(Cl)cc2)C(C)CC)CCc2[nH]c3c(Cl)cc(Cl)cc3c2C1)C(N)=O (stereo partly drawn) [Compound 3, 4-chlorobenzyl {(S)-1-[(R)-3-((S)-carbamoyl-2-methylbutylcarbamoyl)-6,8-dichloro-2,3,4,9-tetrahydro-1H-carbazol-3-ylcarbamoyl]-2-methylbutyl}carbamate]",47.2 nM
5,"CCC(C)[C@H](NC(=O)[C@@]1(NC(=O)[C@@H](NC(=O)Cc2cccc(F)c2)C(C)CC)CCc2[nH]c3c(Cl)cc(Cl)cc3c2C1)C(N)=O (stereo partly drawn) [Compound 5, (R)-6,8-dichloro-3-{(S)-2-[2-(3-fluorophenyl)acetylamino]-3-methylpentanoylamino}-2,3,4,9-tetrahydro-1H-carbazole-3-carboxylic acid ((S)-1-carbamoyl-2-methylbutyl)amide]",98.3 nM
6,"CCC(C)[C@H](NC(=O)[C@@]1(NC(=O)[C@H](CCc2ccc(OC(=O)OCc3ccccc3)cc2)NC(=O)OCc2ccccc2)CCc2[nH]c3c(Cl)cc(Cl)cc3c2C1)C(N)=O (stereo partly drawn) [Compound 8, benzyl 4-{(S)-3-benzyloxycarbonylamino-3-[(R)-3-((S)-1-carbamoyl-2-methylbutylcarbamoyl)-6,8-dichloro-2,3,4,9-tetrahydro-1H-carbazol-3-ylcarbamoyl]propyl}phenylcarbonate]",45.3 nM
7,"CCC(C)[C@H](NC(=O)CCc1ccc(F)cc1)C(=O)N[C@]1(C(=O)N[C@H](C(N)=O)C(C)C)CCc2[nH]c3c(Cl)cc(Cl)cc3c2C1 (stereo partly drawn) [Compound 16, (R)-6,8-dichloro-3-((S)-2-[3-(4-fluorophenyl)propionylamino]-3-methylpentanoylamino)-2,3,4,9-tetrahydro-1H-carbazole-3-carboxylic acid ((S)-1-carbamoyl-2-methylpropyl)amide]",628 nM
8,"CC(C)[C@H](NC(=O)[C@@]1(NC(=O)[C@H](CCCCN)NC(=O)CCc2ccc(F)cc2)CCc2[nH]c3c(Cl)cc(Cl)cc3c2C1)C(N)=O [Compound 17, (S)-5-[(R)-3-((S)-1-carbamoyl-2-methylpropylcarbamoyl)-6,8-dichloro-2,3,4,9-tetrahydro-1H-carbazol-3-ylcarbamoyl]-5-[3-(4-fluorophenyl)propionylamino]pentylammonium trifluoroacetate]",525 nM
9,"CCC(C)[C@H](NC(=O)[C@@]1(NC(=O)[C@@H](NC(=O)CCc2ccccc2F)C(C)CC)CCc2[nH]c3c(Cl)cc(Cl)cc3c2C1)C(N)=O (stereo partly drawn) [Compound 23, (R)-6,8-dichloro-3-{(S)-2-[3-(2-fluorophenyl)propionylamino]-3-methylpentanoylamino}-2,3,4,9-tetrahydro-1H-carbazole-3-carboxylic acid ((S)-1-carbamoyl-2-methylbutyl)amide]",72.9 nM

# The next lines start with the values.
row,EC50,Molecule
1,2.4 nM,"CCC(C)[C@H](NC(=O)Cc1ccccc1F)C(=O)N[C@]1(C(=O)N[C@H](C(N)=S)C(C)CC)CCc2[nH]c3c(Cl)cc(Cl)cc3c2C1 (stereo partly drawn) [Compound 13, (R)-6,8-dichloro-3-{(S)-2-[2-(2-fluorophenyl)acetylamino]-3-methylpentanoylamino}-2,3,4,9-tetrahydro-1H-carbazole-3-carboxylic acid ((S)-2-methyl-1-thiocarbamoylbutyl)amide]"
2,2.05 nM,"CCC(C)[C@H](NC(=O)[C@@]1(NC(=O)[C@H](CCc2ccc(O)cc2)NC(=O)Cc2ccccc2F)CCc2[nH]c3c(Cl)cc(Cl)cc3c2C1)C(N)=S (stereo partly drawn) [Compound 14, (R)-6,8-dichloro-3-[(S)-2-[2-(2-fluorophenyl)acetylamino]-4-(4-hydroxyphenyl)butyrylamino]-2,3,4,9-tetrahydro-1H-carbazole-3-carboxylic acid ((S)-2-methyl-1-thiocarbamoyl-butyl)amide]"
3,24.6 nM,CCC(C)[C@H](NC(=O)[C@@]1(NC(=O)[C@H](CCc2ccc(O)cc2)NC(=O)CCc2ccccc2F)CCc2[nH]c3c(Cl)cc(Cl)cc3c2C1)C(N)=O (stereo partly drawn) [Compound 22]
4,13.5 nM,"CCC(C)[C@H](NC(=O)[C@@]1(NC(=O)[C@H](CCc2ccc(OCCOCCOCCOCCOC)cc2)NC(=O)OCc2ccccc2)CCc2[nH]c3c(Cl)cc(Cl)cc3c2C1)C(N)=S (stereo partly drawn) [Compound 24, benzyl {(S)-1-[(R)-6,8-dichloro-3-((S)-2-methyl-1-thiocarbamoylbutylcarbamoyl)-2,3,4,9-tetrahydro-1H-carbazol-3-ylcarbamoyl]-3-[4-(2-{2-[2-(2-methoxyethoxy)ethoxy]-ethoxy}ethoxy)phenyl]propyl}carbamate]"
5,4.2 nM,"CCC(C)[C@H](NC(=O)OCc1ccccc1)C(=O)N[C@]1(C(=O)N[C@H](C(N)=S)C(C)CC)CCc2[nH]c3c(Cl)cc(F)cc3c2C1 (stereo partly drawn) [Compound 25, benzyl {(S)-1-[(R)-8-chloro-6-fluoro-3-((S)-2-methyl-1-thiocarbamoylbutylcarbamoyl)-2,3,4,9-tetrahydro-1H-carbazol-3-ylcarbamoyl]-2-methylbutyl}carbamate]"

# — patent US8067456B2 (AEterna Zentaris GmbH, priority 2004, dated 2011)
